The results in this text go back to US20120149100A1, “CARDIOMYOCYTE CELL POPULATIONS” (Mount Sinai School of Medicine, priority 2005, published 2012).

Assay [1] has as its system Flk-1+ cells isolated from day 3.25 Ainv-Notch4 EBs. Description: Cardiac assay of reaggregated Flk-1+ cells from Ainv-Notch4 EBs. In kind it is cell-based. Here is the method: (§1) Sorted cells were reaggregated for 24 hours in StemPro-34 serum-free medium (hwitrogen) containing 2 mM L-glutamine (GIBCO/BRL), transferrin (200 μg/ml), 0.5 mM ascorbic acid and 4.5×10^−4 M MTG at 3×10^5 cells per ml in ultra-low-attachment 24-well plates (Costar). Single aggregates or pools of aggregates were replated in gelatin-coated 96- or 24-well plates containing SternPro with 2 mM L-glutamine for cardiac culture. Following 2 to 4 days of culture the proportion of aggregates containing contracting cells was scored and the number of Troponin T-positive cells was evaluated by flow cytometric analyses. For the aggregated and cardiac cultures, doxycycline (Dox) was used at 0.5 μg/ml and γ-secretase inhibitor X at 5 μM (dissolved in DMSO). The same concentration of DMSO was added to the control cultures. Medium was changed everyday to provide fresh Dox and inhibitor.
To investigate the potential of Notch4 to initiate a cardiogenic program in this early stage of hemangioblast population, Flk-1^+ cells isolated from day 3.25 Ainv-Notch4 EBs were reaggregated for 24 hours in the presence or absence of Dox as described above. The resulting aggregates were then cultured in gelatin-coated microliter wells containing serum-free media (hereafter referred to as cardiac cultures). These conditions efficiently support cardiomyooyte development from cardiogenic mesoderm (Kouskoff et al. (2005) Proc. Natl. Acad. Sci. 102:13170-13175). Both single aggregates and pools of aggregates were cultured for 2-3 days. Following this maturation step, the cultures of single aggregates were scored for the presence of contracting cells indicative of cardiomyocyte differentiation. None of the aggregates generated in the absence of Dox (−Dox/−Dox) contained contracting cells (FIG. 3A). Rather, these aggregates underwent heniatopoietio differentiation as indicated by the development of hemoglobinized erythroid cells, an observation consistent with the hemangioblast potential of this population. […] (FIG. 3B, right panel). Few cTnT cells were atected among the adhesive cells generated from non-induced aggregates (FIG. 3B, left panel). Cultures of the pooled induced aggregates generated extensive areas of contracting cells. Contracting cells were not detected in the cultures of the non-induced aggregates. Flow cytometric analysis of the differentiated progeny from pooled inducedaggregates confirmed the dramatic cardiogenic effect of Notch4 as greater than 60% of the entire cell population expressed cTnT after 2 days in the cardiac cultures (+Dox/−Dox, FIG. 3C). Less than 1% of the cells generated from the non-induced population expressed cTnT (−Dox/−Dox, FIG. 3C). […]

In assay [2] the test system is BL-CFC in day 3.25 Flk-1+ cells. Put plainly: Blast colony (BL-CFC) assay. It is filed as cell-based. Here is the method: The blast and hematopoietic colony assays were performed as described Kennedy et al., (2003) Metods Enzymol. 365:39-59. Dox was added at 0.5 μg/ml to induce Notch4 expression and y-secretase inhibitor X (L685,458, Calbiochem) at 5 μM to blook Notch signaling in the:blast colony culture. To generate mixed hemangioblastkardiac colonies, blast colony growth was initiated in standard blast colony cultures containing Dox for 24 hours. The developing colonies were then washed from with methycellulose with IMDM containing 10% FCS to remove Dox. The colonies were recultured in blast colony metycellulose supplemented with Erythropoietin (2 U/ml) and IL-3 (1% conditioned medium). Mixed colonies containing an inner cardiac core surrounded by outer hematopoietic cells were picked for analysis at day 7.
To determine if the BL-CFC is the target of the Notch4-induced fate change, day 3.25 Flk-1^+ cells were cultured in the BL-CFC assay in the presence or absence of Dox. In the absence of Dox, this population generated typical blast colonies that appeared as grape-like clusters of cells. When cultured in the presence of Dox, these cells formed compact colonies of tightly packed cells that were easy to distinguish from the blast colonies (FIG. 5A). The number of these compact colonies was similar to the number of blast cell colonies that developed in the non-induced cultures (FIG. 5B). […] None of these colonies expressed gata-1. As shown previously, blast colonies expressed the endothelial genes as well as gata-1. […] With extended time in the methylcellulose cultures, some of the compact colonies generated contracting cells. To quantify the proportion of colonies that generated contracting cells, individual colonies were picked at day 7 of culture and replated in microtiter wells in the cardiac cultures. Approximately 70% of the compact colonies generated contracting cells between 2 and 7 days of culture. The contracting cells expressed cTnT, confirming that they were cardiomyocytes (FIG. 5D).

Another assay relates to Ainv-Notch4 ES cells. Description: Flow cytometric analysis for HA-Notch4 expression after induction. It is filed as cell-based. As to conditions: one day following Dox 0.5 μg/ml induction. Here is the method:
Dissociated cells were incubated with biotinylated mAbs (against Flk-1, VE-cad, or CD41) in PBS containing 10% FCS on ice for 30 min. The cells were then washed once and incubated with streptavidin-PE-Cy5 (BD Pharmingen) for another 30 minutes on ice. Following an additional two washes, the cells were analyzed on a FACSCalibur flow cytometer (BectonDicldnson) or sorted on a Moflo cell sorter (Cytomation). For Troponin T or HA staining, cells were fixed in 4% paraformaldehyde (PFA) for 30 minutes and then incubated in a permeabilizing buffer consisting of PBS with 10% FCS and 0.1% saponin (Sigma) for 10 minutes. Following fixing and permeabilization, the cells were washed twice and incubated with an anti-Troponin T (unconjugated mouse antibody, Lab Vision) or anti-HA (conjugated with biotin, Covance) antibody for 30 minutes. After two washes, the cells were incubated with a secondary APC-conjugated goat anti-mouse antibody (for Troponin T antibody) or streptavidin-PE-Cy5 (for biotinylated HA antibody) for 30 minutes. Finally, the cells were washed twice with permeabilizing buffer and then twice with buffer without saponin. […] One day following Dox (0.5 μg/ml) induction, 90% of Ainv-Notch4 ES cells expressed Notch4 as determined by flow cytometric analysis for HA expression (FIG. 2A).
In general terms: In flow cytometry, cells or beads pass a laser one at a time.

For assay [3], the system named is Flk-1+ cells from Bry-GFP ES cells on OP9-DL1 cells. Description: Culture of Flk-1+ cells on Dll-1 expressing OP9 stromal cells. It is filed as cell-based. As to conditions: inhibitor 5 μM; 3 days of culture. On the procedure:
OP9-DL1 cells described by Schmitt et al. (2004) Nat. Immunol. 5:410-417 were cultured in a 24-well plate and irradiated before use. Day 3.25 EB-derived Flk-1^+ cells (3×10^4 per well) were seeded onto OP9 cells in the same medium used for the cardiac cultures. γ-Secretase inhibitor X (dissolved in DMSO) at 5 μM or a corresponding volume of DMSO was included in the cultures. Medium was changed everyday to supply fresh inhibitor. After 3 days of culture, the cells were harvested and subjected to flow oytometric analysis to determine the number of Troponin T-positive cells.
Following 3 days of culture, areas of contracting cells were detected on the OP9 stromal cells, with approximately 24% of the cells expressing cTnT (FIG. 6A).

For assay [4], the system named is GFP-Bry+/Flk-1- fraction from GFP-Bry/Ainv-Notch4 ES cells. Description: Cardiac assay of reaggregated GFP-Bry+/Flk-1- cells. In kind it is cell-based. On the procedure:
as §1
Cardiac potential has been mapped to the Flk-1^− fraction of brachytury-expressing mesoderm (GFP-Bry^+/Flk-1^−) at early singes of EB development (Kouskoff et al., supra). To investigate the role of Notch4 during cardiac differentiation of this mesoderm, the GFP cDNA was targeted to the brachyury locus of Ainv cells to enable the overexpression of Notch4 in the GFP-Bry^+/Flk-1^− population. The GFP-Bry^+/Flk-1^− fraction was isolated from clay 3.25 EBs derived from the GFP-Bry/Ainv-Notch4 ES cells, reaggregated for 1 day and the resultant aggregates plated in cardiac cultures. γ-Secretase inhibitor or Dox was added to the cells either during the reaggregation step or to the cardiac cultures to further define the stage specific effects of Notch4. Three days following differentiation of the aggregates in the cardiac cultures, the proportion of cTnT-positive cells and the expression of cardiac genes were analyzed (FIG. 7). […] As expected, this population expressed the spectrum of cardiac genes. Induction of Notch4 during the reaggregation stage (+Dox/−Dox) enhanced cardiomyocyte development over that observed in the control cultures (FIG. 7C). […]

Assay [5] concerns posterior primitive streak explants. Description: E7.5 primitive streak explant cultures. It is filed as cell-based, mouse. The conditions noted are these: inhibitor 10 μM; 5 days of culture. Here is the method: Female swiss webster mice (Taconic) were mated with male GFP-Bry^+/− mice described by Huber et al., (2004) Nature 432:625-630. Pregnant mice were sacrificed 7.5 days after mating and the embryos were isolated. Dissections were performed under a Leica MZFLIII fluorescence dissecting stereomicrosope to visualize the GFP expression in the primitive streak (PS). Using tungsten needles (Fine Science tools), the PS of GFP-Bry^+/− embryos were isolated and separated into posterior and anterior regions. Individual anterior and posterior PS pieces were plated in gelatin-coated 96-well dishes with medium for cardiac cultures. γ-Secretase inhibitor at 10 μM or a corresponding volume of DMSO was included in the cultures. Medium was changed everyday to provide fresh inhibitor. After 3-5 days, the explants were scored for the presence of contracting foci and harvested for gene expression analysis.
When isolated PPS are plated in the cardiac cultures contracting cardiomyocytes can be detected within 3 to 5 days. To investigate whether Notch signalling is required for the development of the cardiomyocyte lineage from embryo-derived tissues, PPSs were cultured in the presence or absence of γ-secretase inhibitor and then analyzed for the development of contracting cells and for the expression of cardiac genes. […]

[6] abbreviates: +Dox+inhibitor/-Dox, inhibitor 5 μM during the reaggregation step.
Where [7] appears, read: inhibitor during the aggregation stage (+I/-I).

Turning to `C[C@H]1c2cccc(O)c2C(=O)C2=C(O)[C@]3(O)C(=O)C(C(N)=O)=C(O)[C@@H](N(C)C)[C@@H]3[C@@H](O)[C@@H]21` [Dox, doxycycline], the “cell population expressing cTnT” value in assay [1] (+Dox/-Dox, pooled aggregates, 2 days in cardiac cultures) was “greater than 60%”. Also, in assay [1] (Flk-1+ cells from day 4 EBs, Dox 24 hours), the “aggregates containing contracting cells” value came to 25%. Also, in assay [2] (Dox exposure limited to 24 hours, replated into cardiac cultures), the “mixed colonies that generated contracting cells” value is recorded as 45%. For the same compound, in assay [2] (colonies formed in presence of Dox, picked at day 7, 2 to 7 days in cardiac cultures), the “compact colonies that generated contracting cells” value is “Approximately 70%”. In the assay on Ainv-Notch4 ES cells, the “Ainv-Notch4 ES cells expressing Notch4 (HA expression)” value was found to be 90%.
In the case of `CC(C)C[C@H](NC(=O)[C@H](Cc1ccccc1)C[C@@H](O)[C@H](Cc1ccccc1)NC(=O)OC(C)(C)C)C(=O)N[C@@H](Cc1ccccc1)C(N)=O` [γ-secretase inhibitor], in assay [1] (setting [6]), the “expression of cardiac genes” value is “inhibited” and the “generation of contracting cells” value is given as “inhibited”. Further, the “colony type (blast vs compact colonies)” value in assay [2] (inhibitor 5 μM together with Dox 0.5 μg/ml, 4 days) was “reversal back to blast colonies”. In addition, the “cardiomyocyte development (cTnT+ cells)” value in assay [3] was “inhibited”. The “proportion of cTnT-expressing population compared to control” value in assay [4] (inhibitor added to the cardiac cultures (-I/+I)) is recorded as “modestly increased”. For the same compound, in assay [4] (setting [7]), the “development of cTnT-positive contracting cells” value is “suppressed” and the “expression levels of the cardiac genes” value is “reduced”. In assay [5], the “PS explants that generated contracting cells” value is “Less than 10%” and the “expression of cardiac genes in explants” value is given as “inhibited in some but not all of the explants”.
